# What was measured:
# [1] = biological target: T1, human enzyme NAMPT (full length) (Homo sapiens, UniProt P43490); assay: NMN fluorescence biochemical assay (stimulation of NMN synthesis by NAMPT); conditions: for EC50: NMN fluorescence assay, purified human NAMPT 100 nM, concentration giving half-maximal activation, read-out: Enzymatic EC50; for Enzymatic Emax: fold change of maximal activation compared to DMSO
# T1 construct: human enzyme NAMPT (full length)
# In short: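 Full-length human NAMPT (100 nM) was preincubated 15 min at 37 °C with compound in 50 mM Tris-HCl pH 7.5, 10 mM MgCl2, 2 mM DTT, then reacted 1 h at 37 °C with 50 μM NAM, 100 μM PRPP, 4 mM ATP (stated solution concentrations). NMN was derivatised with acetophenone/KOH then formic acid and read at Ex/Em 382/445 nm; EC50 and Emax (fold over DMSO) reported.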
# [2] = system: endogenous NAMPT in U2OS cells; assay: Cellular NAD+ modulation assay (NAD/NADH-Glo, U2OS cells); assay type: cell-based; conditions: Homo sapiens, 24 hours incubation, cellular NAD+; for maximal fold induction: read-out: Cellular Emax
# In short: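 NAD/NADH-Glo luminescence quantified NAD+ after acid treatment (60 °C, 15 min) and neutralization of DTAB lysates. Beforehand, U2OS cells seeded 16 h earlier received compound concentration series for 24 h at 37 °C. Values given as half-maximal activation concentration (EC50) and maximal fold change versus DMSO (Emax).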
# T1 sequence (P43490 whole entry): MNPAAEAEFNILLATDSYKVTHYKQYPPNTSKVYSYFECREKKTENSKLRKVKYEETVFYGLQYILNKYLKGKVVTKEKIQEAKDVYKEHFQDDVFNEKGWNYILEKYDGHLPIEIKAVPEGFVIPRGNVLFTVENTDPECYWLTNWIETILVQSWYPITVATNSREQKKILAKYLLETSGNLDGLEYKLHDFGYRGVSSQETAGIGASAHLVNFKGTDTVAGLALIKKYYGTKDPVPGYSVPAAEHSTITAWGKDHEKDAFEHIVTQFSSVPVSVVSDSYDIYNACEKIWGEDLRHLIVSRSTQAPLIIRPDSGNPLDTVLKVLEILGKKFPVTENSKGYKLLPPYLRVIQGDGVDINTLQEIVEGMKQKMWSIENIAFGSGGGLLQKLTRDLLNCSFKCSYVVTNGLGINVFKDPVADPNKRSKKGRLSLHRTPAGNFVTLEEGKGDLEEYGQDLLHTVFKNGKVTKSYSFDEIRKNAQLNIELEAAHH
EC50 [1] [nM],Enzymatic Emax [1],EC50 [2] [nM],SMILES,maximal fold induction [2]
< 500,B (3≥B>2),< 500,"Cn1nc(OC(F)F)c(Cl)c1CC1c2ccccc2C(=O)N1Cc1ccc2[nH]nnc2c1 (stereo not drawn) [Compound 397, 2-((1H-benzo[d][1,2,3]triazol-5-yl)methyl)-3-((4-chloro-3-(difluoromethoxy)-1-methyl-1H-pyrazol-5-yl)methyl)isoindolin-1-one]",> 1.5
< 500,A (A>3),500 to 5000,"Cn1ncc(Cl)c1CC1c2cc(C3CCOCC3)ccc2C(=O)N1Cc1ccc2[nH]nnc2c1 (stereo not drawn) [Compound 398, 2-((1H-benzo[d][1,2,3]triazol-5-yl)methyl)-3-((4-chloro-1-methyl-1H-pyrazol-5-yl)methyl)-5-(tetrahydro-2H-pyran-4-yl)isoindolin-1-one]",> 1.5
< 500,B (3≥B>2),< 500,"Cn1nc(C2CC2)c(Cl)c1CC1c2ccccc2C(=O)N1Cc1ccc2[nH]nnc2c1 (stereo not drawn) [Compound 399, 2-((1H-benzo[d][1,2,3]triazol-5-yl)methyl)-3-((4-chloro-3-cyclopropyl-1-methyl-1H-pyrazol-5-yl)methyl)isoindolin-1-one]",> 1.5
500 to 5000,B (3≥B>2),500 to 5000,"O=C1c2ccccc2C(Cc2ncccc2Br)N1CC1CCc2[nH]c(=O)oc2C1 (stereo not drawn) [Compound 400, 6-((1-((3-bromopyridin-2-yl)methyl)-3-oxoisoindolin-2-yl)methyl)-4,5,6,7-tetrahydrobenzo[d]oxazol-2(3H)-one]",> 1.5
< 500,B (3≥B>2),< 500,"NC(=O)C1CC(CN2C(=O)c3ccccc3C2Cc2ncccc2Br)C1 (stereo not drawn) [Compound 404, 3-((1-((3-bromopyridin-2-yl)methyl)-3-oxoisoindolin-2-yl)methyl)cyclobutane-1-carboxamide]",> 1.5
500 to 5000,C (2≥C),5000 to 50000,"Cn1ncc(Cl)c1C[C@@H]1c2ccccc2C(=O)N1C[C@H]1C[C@]2(CNC(=O)O2)C1 [Compound 405, (2s,4S)-2-(((R)-1-((4-chloro-1-methyl-1H-pyrazol-5-yl)methyl)-3-oxoisoindolin-2-yl)methyl)-5-oxa-7-azaspiro[3.4]octan-6-one]",1.2 to 1.5
< 500,B (3≥B>2),< 500,"Cn1ncc(Cl)c1C[C@H]1c2ccccc2C(=O)N1C[C@H]1C[C@]2(CNC(=O)O2)C1 [Compound 406, (2s,4R)-2-(((S)-1-((4-chloro-1-methyl-1H-pyrazol-5-yl)methyl)-3-oxoisoindolin-2-yl)methyl)-5-oxa-7-azaspiro[3.4]octan-6-one]",> 1.5
< 500,B (3≥B>2),< 500,"Cc1ccnc(C#N)c1CC1c2ccccc2C(=O)N1C/C=C/c1c[nH]nn1 (stereo not drawn) [Compound 409, (E)-3-((2-(3-(1H-1,2,3-triazol-4-yl)allyl)-3-oxoisoindolin-1-yl)methyl)-4-methylpicolinonitrile]",> 1.5
< 500,B (3≥B>2),500 to 5000,"N#CCn1cc(Cl)c(CC2c3ccccc3C(=O)N2Cc2ccc3[nH]nnc3c2)n1 (stereo not drawn) [Compound 410, 2-(3-((2-((1H-benzo[d][1,2,3]triazol-5-yl)methyl)-3-oxoisoindolin-1-yl)methyl)-4-chloro-1H-pyrazol-1-yl)acetonitrile]",> 1.5
< 500,B (3≥B>2),< 500,"CC(C)(O)Cn1cc(Cl)c(CC2c3ccccc3C(=O)N2Cc2ccc3[nH]nnc3c2)n1 (stereo not drawn) [Compound 411, 2-((1H-benzo[d][1,2,3]triazol-5-yl)methyl)-3-((4-chloro-1-(2-hydroxy-2-methylpropyl)-1H-pyrazol-3-yl)methyl)isoindolin-1-one]",> 1.5
< 500,B (3≥B>2),5000 to 50000,"O=C1c2ccccc2C(Cc2nn(C3CC4(COC4)C3)cc2Cl)N1Cc1ccc2[nH]nnc2c1 (stereo not drawn) [Compound 412, 2-((1H-benzo[d][1,2,3]triazol-5-yl)methyl)-3-((4-chloro-1-(2-oxaspiro[3.3]heptan-6-yl)-1H-pyrazol-3-yl)methyl)isoindolin-1-one]",1.2 to 1.5
< 500,B (3≥B>2),500 to 5000,"O=C1c2ccccc2C(Cc2nn(C3CNC3)cc2Cl)N1Cc1ccc2[nH]nnc2c1 (stereo not drawn) [Compound 413, 2-((1H-benzo[d][1,2,3]triazol-5-yl)methyl)-3-((1-(azetidin-3-yl)-4-chloro-1H-pyrazol-3-yl)methyl)isoindolin-1-one]",> 1.5
500 to 5000,A (A>3),< 500,"COc1ccc2c(c1)C(=O)N(Cc1ccc3[nH]nnc3c1)C2Cc1c(Cl)cnn1C (stereo not drawn) [Compound 414, 2-((1H-benzo[d][1,2,3]triazol-5-yl)methyl)-3-((4-chloro-1-methyl-1H-pyrazol-5-yl)methyl)-6-methoxyisoindolin-1-one]",> 1.5
500 to 5000,B (3≥B>2),< 500,"COc1ccc(CN2C(=O)c3ccccc3C2Cc2ncccc2Br)cc1 (stereo not drawn) [Compound 415, 3-((3-bromopyridin-2-yl)methyl)-2-(4-methoxybenzyl)isoindolin-1-one]",1.2 to 1.5
< 500,B (3≥B>2),< 500,"C/C(=C\c1c[nH]nn1)CN1C(=O)c2ccccc2C1Cc1ncccc1Br (stereo not drawn) [Compound 416, (E)-3-((3-bromopyridin-2-yl)methyl)-2-(2-methyl-3-(1H-1,2,3-triazol-4-yl)allyl)isoindolin-1-one]",> 1.5
< 500,B (3≥B>2),< 500,"O=C1c2ccccc2C(Cc2ncccc2Br)N1CC#Cc1cn[nH]n1 (stereo not drawn) [Compound 417, 2-(3-(2H-1,2,3-triazol-4-yl)prop-2-yn-1-yl)-3-((3-bromopyridin-2-yl)methyl) isoindolin-1-one]",> 1.5
< 500,B (3≥B>2),< 500,"O=C1c2ccccc2C(Cc2ncsc2Cl)N1Cc1ccc2[nH]nnc2c1 (stereo not drawn) [Compound 418, 2-((1H-benzo[d][1,2,3]triazol-5-yl)methyl)-3-((5-chlorothiazol-4-yl)methyl)isoindolin-1-one]",> 1.5
< 500,A (A>3),< 500,"Cn1ncc(Cl)c1CC1(C)c2cc(Br)ccc2C(=O)N1Cc1ccc2[nH]c(=O)oc2c1 (stereo not drawn) [Compound 419, 6-((6-bromo-1-((4-chloro-1-methyl-1H-pyrazol-5-yl)methyl)-1-methyl-3-oxoisoindolin-2-yl)methyl)benzo[d]oxazol-2(3H)-one]",> 1.5
< 500,B (3≥B>2),< 500,"CN(C)c1nn(C)c(CC2c3ccccc3C(=O)N2Cc2ccc3[nH]nnc3c2)c1Cl (stereo not drawn) [Compound 420, 2-((1H-benzo[d][1,2,3]triazol-5-yl)methyl)-3-((4-chloro-3-(dimethylamino)-1-methyl-1H-pyrazol-5-yl)methyl)isoindolin-1-one]",> 1.5
< 500,B (3≥B>2),< 500,"Cn1ncc(Cl)c1CC1c2cc(OC(F)F)ccc2C(=O)N1Cc1ccc2[nH]nnc2c1 (stereo not drawn) [Compound 421, 2-((1H-benzo[d][1,2,3]triazol-5-yl)methyl)-3-((4-chloro-1-methyl-1H-pyrazol-5-yl)methyl)-5-(difluoromethoxy)isoindolin-1-one]",> 1.5
≥ 5000,B (3≥B>2),5000 to 50000,"CNCc1ccc2c(c1)C(=O)N(Cc1ccc3[nH]nnc3c1)C2Cc1c(Cl)cnn1C (stereo not drawn) [Compound 422, 2-((1H-benzo[d][1,2,3]triazol-5-yl)methyl)-3-((4-chloro-1-methyl-1H-pyrazol-5-yl)methyl)-6-((methylamino)methyl)isoindolin-1-one]",1.2 to 1.5
< 500,B (3≥B>2),< 500,"O=C1c2ccccc2C(Cc2ncccc2Br)N1C/C=C/c1cn[nH]c1 (stereo not drawn) [Compound 423, (E)-2-(3-(1H-pyrazol-4-yl)allyl)-3-((3-bromopyridin-2-yl)methyl)isoindolin-1-one]",> 1.5
< 500,B (3≥B>2),< 500,"C/C(=C\CN1C(=O)c2ccccc2C1Cc1ncccc1Br)c1c[nH]nn1 (stereo not drawn) [Compound 425, (E)-2-(3-(1H-1,2,3-triazol-4-yl)but-2-en-1-yl)-3-((3-bromopyridin-2-yl)methyl) isoindolin-1-one]",> 1.5
500 to 5000,B (3≥B>2),< 500,"Cc1ccnc(C#N)c1CC1c2cccc(F)c2C(=O)N1CC1CC2(CNC(=O)O2)C1 (stereo not drawn) [Compound 428, 3-((4-fluoro-3-oxo-2-((6-oxo-5-oxa-7-azaspiro[3.4]octan-2-yl)methyl)isoindolin-1-yl)methyl)-4-methylpicolinonitrile]",> 1.5
